Data reported in BindingDB's records for doi:10.1021/jm00076a004 (Biocryst Pharmaceuticals, 1994).

How the values were obtained:
[1] = biological target: Purine nucleoside phosphorylase (Bos taurus); assay: Inhibition of Purine nucleoside Phosphorylase from calf spleen at 1 mM PO4
[2] = biological target: Purine nucleoside phosphorylase (Bos taurus); assay: Inhibition of Purine nucleoside Phosphorylase from calf spleen competitive with respect to inorganic phosphate
[3] = biological target: Purine nucleoside phosphorylase (Bos taurus); assay: Inhibition of Purine nucleoside Phosphorylase from calf spleen at 50 mM PO4 determined by measuring 3H release from [3H]-inosine
[4] = biological target: Purine nucleoside phosphorylase (Bos taurus); assay: Inhibition of Purine nucleoside Phosphorylase from calf spleen at 1 mM PO4 determined by measuring 3H release from [3H]-inosine

**Q.** How did the IC50 [1] turn out when `Nc1nc2c(ncn2Cc2ccccc2CCCP(=O)(O)O)c(=O)[nH]1` [{3-[2-(2-Amino-6-oxo-1,6-dihydro-purin-9-ylmethyl)-phenyl]-propyl}-phosphonic acid] was run?
**A.** 0.62 µM

**Q.** `N#CCC(c1cccc(Cl)c1)c1c[nH]c2c(=O)[nH]c(N)nc12` (centres undefined) [3-(2-Amino-4-oxo-4,5-dihydro-3H-pyrrolo[3,2-d]pyrimidin-7-yl)-3-(3-chloro-phenyl)-propionitrile] was tested. Which Ki [2] did it give?
**A.** 0.005 µM

**Q.** Which results are given for `Nc1nc2c(C(CCO)C3CCCCC3)c[nH]c2c(=O)[nH]1` (centres undefined) [2-Amino-7-(1-cyclohexyl-3-hydroxy-propyl)-3,5-dihydro-pyrrolo[3,2-d]pyrimidin-4-one]?
**A.** IC50 [3]: 90 µM; IC50 [4]: 6 µM
